Results from the supplement of paper PMC10307832.

Assays:
Experiment in all cases: relative viability (nuclei count vs DMSO), 5 days (fraction); higher = more cells survive
BEN = tested on: BEN
How it was run: (§1)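 Medians of duplicate plates are given as relative viability. That measure is the nuclei count in treated wells divided by the count in vehicle wells. Counts were taken on 4× images of lung cancer cell lines in 1536-well plates, 5 days after pin-tool dosing the day after seeding with one drug alone or a fixed anchor-drug dose plus five library-drug doses (not always all listed) in √10 steps.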

CAL-12T = tested on: CAL-12T
How it was run: as §1

COR-L23 = tested on: COR-L23
How it was run: as §1

HCC-44 = tested on: HCC-44
How it was run: as §1

LU99A = tested on: LU99A
How it was run: as §1

LXF-289 = tested on: LXF-289
How it was run: as §1

NCI-H1355 = tested on: NCI-H1355
How it was run: as §1

NCI-H1437 = tested on: NCI-H1437
How it was run: as §1

NCI-H1650 = tested on: NCI-H1650
How it was run: as §1

NCI-H1651 = tested on: NCI-H1651
How it was run: as §1

NCI-H1666 = tested on: NCI-H1666
How it was run: as §1

NCI-H1755 = tested on: NCI-H1755
How it was run: as §1

NCI-H1993 = tested on: NCI-H1993
How it was run: as §1

NCI-H2085 = tested on: NCI-H2085
How it was run: as §1

NCI-H2087 = tested on: NCI-H2087
How it was run: as §1

NCI-H2170 = tested on: NCI-H2170
How it was run: as §1

NCI-H460 = tested on: NCI-H460
How it was run: as §1

NCI-H520 = tested on: NCI-H520
How it was run: as §1

PC-14 = tested on: PC-14
How it was run: as §1

SK-MES-1 = tested on: SK-MES-1
How it was run: as §1

With `Cc1csc(=NC2CCCCC2)n1/N=C/c1ccc(O)c(O)c1O` [MIM1] + O=C(CCCCCCC(=O)Nc1ccccc1)NO [Vorinostat] (partner 1 µM) the relative viability (BEN; first compound 0.2 µM) was 0.587, the relative viability (BEN; first compound 0.6325 µM) was 0.546 and the relative viability (BEN; first compound 2 µM) was 0.562. It also gave a relative viability (BEN; first compound 6.325 µM) of 0.511, a relative viability (BEN; first compound 20 µM) of 0.394 and a relative viability (CAL-12T; first compound 0.2 µM) of 0.765. The relative viability (CAL-12T; first compound 0.6325 µM) was 0.752, the relative viability (CAL-12T; first compound 2 µM) was 0.801 and the relative viability (CAL-12T; first compound 6.325 µM) was 0.588. It also gave a relative viability (CAL-12T; first compound 20 µM) of 0.595, a relative viability (COR-L23; first compound 0.2 µM) of 0.42 and a relative viability (COR-L23; first compound 0.6325 µM) of 0.441. The relative viability (COR-L23; first compound 2 µM) was 0.371, the relative viability (COR-L23; first compound 6.325 µM) was 0.314 and the relative viability (COR-L23; first compound 20 µM) was 0.162. It also gave a relative viability (HCC-44; first compound 0.2 µM) of 1.1, a relative viability (HCC-44; first compound 0.6325 µM) of 1.1 and a relative viability (HCC-44; first compound 2 µM) of 1.01. It also gave a relative viability (HCC-44; first compound 6.325 µM) of 1.08, a relative viability (HCC-44; first compound 20 µM) of 0.324 and a relative viability (LU99A; first compound 0.2 µM) of 0.515. For the same compound, the relative viability (LU99A; first compound 0.6325 µM) was 0.435, the relative viability (LU99A; first compound 2 µM) was 0.463 and the relative viability (LU99A; first compound 6.325 µM) was 0.387. The relative viability (LU99A; first compound 20 µM) was 0.119, the relative viability (LXF-289; first compound 0.2 µM) was 0.777 and the relative viability (LXF-289; first compound 0.6325 µM) was 0.462. The relative viability (LXF-289; first compound 2 µM) was 0.665, the relative viability (LXF-289; first compound 6.325 µM) was 0.499 and the relative viability (LXF-289; first compound 20 µM) was 0.304. The relative viability (NCI-H1355; first compound 0.2 µM) was 0.673, the relative viability (NCI-H1355; first compound 0.6325 µM) was 0.604 and the relative viability (NCI-H1355; first compound 2 µM) was 0.693. For the same compound, the relative viability (NCI-H1355; first compound 6.325 µM) was 0.544, the relative viability (NCI-H1355; first compound 20 µM) was 0.487 and the relative viability (NCI-H1437; first compound 0.2 µM) was 0.712. For the same compound, the relative viability (NCI-H1437; first compound 0.6325 µM) was 0.843, the relative viability (NCI-H1437; first compound 2 µM) was 0.833 and the relative viability (NCI-H1437; first compound 6.325 µM) was 0.313. It also gave a relative viability (NCI-H1437; first compound 20 µM) of 0.197, a relative viability (NCI-H1650; first compound 0.2 µM) of 0.617 and a relative viability (NCI-H1650; first compound 0.6325 µM) of 0.562. The relative viability (NCI-H1650; first compound 2 µM) was 0.451, the relative viability (NCI-H1650; first compound 6.325 µM) was 0.119 and the relative viability (NCI-H1650; first compound 20 µM) was 0.179. The relative viability (NCI-H1651; first compound 0.2 µM) was 0.509, the relative viability (NCI-H1651; first compound 0.6325 µM) was 0.408 and the relative viability (NCI-H1651; first compound 2 µM) was 0.519. For the same compound, the relative viability (NCI-H1651; first compound 6.325 µM) was 0.395, the relative viability (NCI-H1651; first compound 20 µM) was 0.51 and the relative viability (NCI-H1666; first compound 0.2 µM) was 1.01. The relative viability (NCI-H1666; first compound 0.6325 µM) was 0.922, the relative viability (NCI-H1666; first compound 2 µM) was 1.08 and the relative viability (NCI-H1666; first compound 6.325 µM) was 0.769. For the same compound, the relative viability (NCI-H1666; first compound 20 µM) was 0.477, the relative viability (NCI-H1755; first compound 0.2 µM) was 0.708 and the relative viability (NCI-H1755; first compound 0.6325 µM) was 0.65. For the same compound, the relative viability (NCI-H1755; first compound 2 µM) was 0.792, the relative viability (NCI-H1755; first compound 6.325 µM) was 0.671 and the relative viability (NCI-H1755; first compound 20 µM) was 0.296. For the same compound, the relative viability (NCI-H1993; first compound 0.2 µM) was 0.851, the relative viability (NCI-H1993; first compound 0.6325 µM) was 0.601 and the relative viability (NCI-H1993; first compound 2 µM) was 0.601. It also gave a relative viability (NCI-H1993; first compound 6.325 µM) of 0.348, a relative viability (NCI-H1993; first compound 20 µM) of 0.413 and a relative viability (NCI-H2085; first compound 0.2 µM) of 0.765. For the same compound, the relative viability (NCI-H2085; first compound 0.6325 µM) was 0.728, the relative viability (NCI-H2085; first compound 2 µM) was 0.763 and the relative viability (NCI-H2085; first compound 6.325 µM) was 0.547. The relative viability (NCI-H2085; first compound 20 µM) was 0.563, the relative viability (NCI-H2087; first compound 0.2 µM) was 0.68 and the relative viability (NCI-H2087; first compound 0.6325 µM) was 0.536. For the same compound, the relative viability (NCI-H2087; first compound 2 µM) was 0.877, the relative viability (NCI-H2087; first compound 6.325 µM) was 0.596 and the relative viability (NCI-H2087; first compound 20 µM) was 0.497. It also gave a relative viability (NCI-H2170; first compound 0.2 µM) of 0.786, a relative viability (NCI-H2170; first compound 0.6325 µM) of 0.696 and a relative viability (NCI-H2170; first compound 2 µM) of 0.748. It also gave a relative viability (NCI-H2170; first compound 6.325 µM) of 0.479, a relative viability (NCI-H2170; first compound 20 µM) of 0.138 and a relative viability (NCI-H460; first compound 0.2 µM) of 0.703. The relative viability (NCI-H460; first compound 0.6325 µM) was 0.746, the relative viability (NCI-H460; first compound 2 µM) was 0.411 and the relative viability (NCI-H460; first compound 6.325 µM) was 0.117. The relative viability (NCI-H460; first compound 20 µM) was 0.0234, the relative viability (NCI-H520; first compound 0.2 µM) was 0.64 and the relative viability (NCI-H520; first compound 0.6325 µM) was 0.744. For the same compound, the relative viability (NCI-H520; first compound 2 µM) was 0.833, the relative viability (NCI-H520; first compound 6.325 µM) was 0.538 and the relative viability (NCI-H520; first compound 20 µM) was 0.308. The relative viability (PC-14; first compound 0.2 µM) was 0.746, the relative viability (PC-14; first compound 0.6325 µM) was 0.616 and the relative viability (PC-14; first compound 2 µM) was 0.478. The relative viability (PC-14; first compound 6.325 µM) was 0.456, the relative viability (PC-14; first compound 20 µM) was 0.118 and the relative viability (SK-MES-1; first compound 0.2 µM) was 1.02. The relative viability (SK-MES-1; first compound 0.6325 µM) was 0.953, the relative viability (SK-MES-1; first compound 2 µM) was 0.959 and the relative viability (SK-MES-1; first compound 6.325 µM) was 0.594. For the same compound, the relative viability (SK-MES-1; first compound 20 µM) was 0.2.
